Measurements taken from ChEMBL document CHEMBL1158870, “Antitumor agents. 180. Chemical Studies and cytotoxic evaluation of cumingianosides and cumindysoside A, antileukemic triterpene glucosides with a 14,18-cycloapotirucallane skeleton” (1997).

Legend:
[1] = system: CCRF-CEM; assay: Cytotoxicity against human CCRF-CEM cells by SRB assay; assay type: functional
[2] = Cytotoxicity against human HL60(TB) cells by SRB assay; assay type: functional, HL-60(TB); conditions: HL-60
[3] = system: K562; assay: Cytotoxicity against human K562 cells by SRB assay; assay type: functional
[4] = system: MOLT-4; assay: Cytotoxicity against human MOLT4 cells by SRB assay; assay type: functional
[5] = system: RPMI-8226; assay: Cytotoxicity against human RPMI8226 cells by SRB assay; assay type: functional
[6] = system: SR; assay: Cytotoxicity against human SR cells by SRB assay; assay type: functional
[7] = system: A549; assay: Cytotoxicity against human A549 cells by SRB assay; assay type: functional
[8] = system: EKVX; assay: Cytotoxicity against human EKVX cells by SRB assay; assay type: functional
[9] = system: HOP-62; assay: Cytotoxicity against human HOP62 cells by SRB assay; assay type: functional
[10] = system: HOP-92; assay: Cytotoxicity against human HOP92 cells by SRB assay; assay type: functional
[11] = system: NCI-H226; assay: Cytotoxicity against human NCI-H226 cells by SRB assay; assay type: functional
[12] = system: NCI-H23; assay: Cytotoxicity against human NCI-H23 cells by SRB assay; assay type: functional
[13] = system: NCI-H322M; assay: Cytotoxicity against human NCI-H322M cells by SRB assay; assay type: functional
[14] = system: NCI-H460; assay: Cytotoxicity against human NCI-H460 cells by SRB assay; assay type: functional
[15] = system: NCI-H522; assay: Cytotoxicity against human NCI-H522 cells by SRB assay; assay type: functional
[16] = system: COLO 205; assay: Cytotoxicity against human COLO205 cells by SRB assay; assay type: functional
[17] = system: HCC 2998; assay: Cytotoxicity against human HCC2998 cells by SRB assay; assay type: functional
[18] = system: HCT-116; assay: Cytotoxicity against human HCT116 cells by SRB assay; assay type: functional
[19] = system: HCT-15; assay: Cytotoxicity against human HCT15 cells by SRB assay; assay type: functional
[20] = system: HT-29; assay: Cytotoxicity against human HT29 cells by SRB assay; assay type: functional
[21] = system: KM12; assay: Cytotoxicity against human KM12 cells by SRB assay; assay type: functional
[22] = system: SW-620; assay: Cytotoxicity against human SW620 cells by SRB assay; assay type: functional
[23] = system: SF-268; assay: Cytotoxicity against human SF268 cells by SRB assay; assay type: functional
[24] = system: SF-295; assay: Cytotoxicity against human SF295 cells by SRB assay; assay type: functional
[25] = system: SNB-19; assay: Cytotoxicity against human SNB19 cells by SRB assay; assay type: functional
[26] = system: SNB-75; assay: Cytotoxicity against human SNB75 cells by SRB assay; assay type: functional
[27] = system: U-251; assay: Cytotoxicity against human U251 cells by SRB assay; assay type: functional
[28] = system: LOX IMVI; assay: Cytotoxicity against human LOXIMVI cells by SRB assay; assay type: functional
[29] = system: Malme-3M; assay: Cytotoxicity against human MALME-3M cells by SRB assay; assay type: functional
[30] = system: M14; assay: Cytotoxicity against human M14 cells by SRB assay; assay type: functional
[31] = system: SK-MEL-2; assay: Cytotoxicity against human SK-MEL-2 cells by SRB assay; assay type: functional
[32] = system: SK-MEL-28; assay: Cytotoxicity against human SK-MEL-28 cells by SRB assay; assay type: functional
[33] = system: SK-MEL-5; assay: Cytotoxicity against human SK-MEL-5 cells by SRB assay; assay type: functional
[34] = system: UACC-257; assay: Cytotoxicity against human UACC257 cells by SRB assay; assay type: functional
[35] = system: UACC-62; assay: Cytotoxicity against human UACC62 cells by SRB assay; assay type: functional
[36] = system: IGROV-1; assay: Cytotoxicity against human IGROV1 cells by SRB assay; assay type: functional
[37] = system: OVCAR-3; assay: Cytotoxicity against human OVCAR-3 cells by SRB assay; assay type: functional
[38] = system: OVCAR-4; assay: Cytotoxicity against human OVCAR4 cells by SRB assay; assay type: functional
[39] = system: OVCAR-5; assay: Cytotoxicity against human OVCAR5 cells by SRB assay; assay type: functional
[40] = system: OVCAR-8; assay: Cytotoxicity against human OVCAR8 cells by SRB assay; assay type: functional
[41] = system: SK-OV-3; assay: Cytotoxicity against human SKOV3 cells by SRB assay; assay type: functional
[42] = Cytotoxicity against human 786-O cells by SRB assay; assay type: functional; conditions: 786-0
[43] = system: A498; assay: Cytotoxicity against human A498 cells by SRB assay; assay type: functional
[44] = system: ACHN; assay: Cytotoxicity against human ACHN cells by SRB assay; assay type: functional
[45] = system: CAKI-1; assay: Cytotoxicity against human Caki1 cells by SRB assay; assay type: functional
[46] = system: RXF 393; assay: Cytotoxicity against human RXF393 cells by SRB assay; assay type: functional
[47] = system: SN12C; assay: Cytotoxicity against human SN12C cells by SRB assay; assay type: functional
[48] = system: UO-31; assay: Cytotoxicity against human UO31 cells by SRB assay; assay type: functional
[49] = system: PC-3; assay: Cytotoxicity against human PC3 cells by SRB assay; assay type: functional
[50] = system: DU-145; assay: Cytotoxicity against human DU145 cells by SRB assay; assay type: functional
[51] = system: MCF7; assay: Cytotoxicity against human MCF7 cells by SRB assay; assay type: functional
[52] = Cytotoxicity against human MCF7/ADR cells by SRB assay; assay type: functional; conditions: NCI/ADR-RES
[53] = system: MDA-MB-231; assay: Cytotoxicity against human MDA-MB-231 cells by SRB assay; assay type: functional
[54] = Cytotoxicity against human Hs 578T cells by SRB assay; assay type: functional
[55] = system: MDA-MB-435; assay: Cytotoxicity against human MDA-MB-435 cells by SRB assay; assay type: functional
[56] = system: MDA-N; assay: Cytotoxicity against human MDA-N cells by SRB assay; assay type: functional
[57] = system: BT-549; assay: Cytotoxicity against human BT549 cells by SRB assay; assay type: functional
[58] = system: T47D; assay: Cytotoxicity against human T47D cells by SRB assay; assay type: functional
[59] = system: Leukemia cell; assay: Cytotoxicity against human Leukemia cells by SRB assay; assay type: functional
[60] = system: NSCLC; assay: Cytotoxicity against human NSCLC cells by SRB assay; assay type: functional
[61] = Cytotoxicity against human Colon cancer cells by SRB assay; assay type: functional; conditions: Cancer cell lines
[62] = Cytotoxicity against human CNS cancer cells by SRB assay; assay type: functional; conditions: Cancer cell lines
[63] = Cytotoxicity against human melanoma cells by SRB assay; assay type: functional; conditions: Melanoma cell
[64] = Cytotoxicity against human ovarian cancer cells by SRB assay; assay type: functional; conditions: Cancer cell lines
[65] = Cytotoxicity against human prostate cancer cells by SRB assay; assay type: functional; conditions: Cancer cell lines
[66] = Cytotoxicity against human breast cancer cells by SRB assay; assay type: functional; conditions: Cancer cell lines
[67] = Cytotoxicity against human renal cancer cells by SRB assay; assay type: functional; conditions: Cancer cell lines

SMILES: C=C(C)[C@@H](O)[C@H](O)C[C@H](C)[C@@H]1CC[C@]2(C)C1=CC[C@@H]1[C@@]3(C)CC[C@@H](OC(C)=O)C(C)(C)[C@@H]3C[C@@H](O[C@@H]3O[C@H](COC(C)=O)[C@@H](O)[C@H](O)[C@H]3O)[C@]12C
- GI50 [1]: 2240 nM
- GI50 [2]: 2090 nM
- GI50 [3]: 1910 nM
- GI50 [4]: 2290 nM
- GI50 [5]: 1910 nM
- GI50 [6]: 1910 nM
- GI50 [7]: 3240 nM
- GI50 [8]: 3160 nM
- GI50 [9]: 2630 nM
- GI50 [10]: 2340 nM
- GI50 [11]: 3020 nM
- GI50 [12]: 4170 nM
- GI50 [13]: 1860 nM
- GI50 [14]: 2450 nM
- GI50 [15]: 1820 nM
- GI50 [16]: 2040 nM
- TGI [16]: 3500 nM
- GI50 [17]: 77.6 nM
- TGI [17]: 900 nM
- GI50 [18]: 1860 nM
- TGI [18]: 3500 nM
- GI50 [19]: 2950 nM
- TGI [19]: 10000 nM
- GI50 [20]: 1910 nM
- TGI [20]: 3800 nM
- GI50 [21]: 1580 nM
- TGI [21]: 3000 nM
- GI50 [22]: 3020 nM
- TGI [22]: 10400 nM
- GI50 [23]: 2820 nM
- GI50 [24]: 2190 nM
- GI50 [25]: 3890 nM
- GI50 [26]: 1860 nM
- GI50 [27]: 2190 nM
- GI50 [28]: 1620 nM
- GI50 [29]: 1580 nM
- GI50 [30]: 2090 nM
- GI50 [31]: 2000 nM
- GI50 [32]: 2340 nM
- GI50 [33]: 1910 nM
- GI50 [34]: 2750 nM
- GI50 [35]: 1510 nM
- GI50 [36]: 2340 nM
- GI50 [37]: 1860 nM
- GI50 [38]: 2950 nM
- GI50 [39]: 1910 nM
- GI50 [40]: 3630 nM
- GI50 [41]: 2880 nM
- GI50 [42]: 3720 nM
- GI50 [43]: 3890 nM
- GI50 [44]: 1910 nM
- GI50 [45]: 2630 nM
- GI50 [46]: 2090 nM
- GI50 [47]: 3090 nM
- GI50 [48]: 3890 nM
- GI50 [49]: 2140 nM
- GI50 [50]: 2570 nM
- GI50 [51]: 2750 nM
- GI50 [52]: 16200 nM
- GI50 [53]: 1860 nM
- GI50 [54]: 2340 nM
- GI50 [55]: 1950 nM
- GI50 [56]: 2340 nM
- GI50 [57]: 3390 nM
- GI50 [58]: 2570 nM
- TGI [59]: 5100 nM
- TGI [60]: 9000 nM
- TGI [61]: 5000 nM
- TGI [62]: 9500 nM
- TGI [63]: 4200 nM
- TGI [64]: 7400 nM
- TGI [65]: 7000 nM
- TGI [66]: 10700 nM
- TGI [67]: 9700 nM
